#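 Following 48 hours of exposure in 96-well plates, responses at five concentrations were used to interpolate endpoints linearly. GI50 marks 50% less growth. TGI: concentration producing complete growth inhibition.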 Where a SMILES comes first, the peptide text is derived from it. The star is where a group is joined. Fmoc = O=C(OCC1c2ccccc2-c2ccccc21)*; OBn = c1ccc(CO*)cc1; tBu = CC(C)(C)*
# Assays:
# Assay in all cases: inhibition of tumour cell growth, NCI panel, 48 h
# SR leukemia = tested on: SR leukemia
# RPMI-8226 leukemia = tested on: RPMI-8226 leukemia
# CAKI-1 renal = tested on: CAKI-1 renal
# NCI-H460 lung = tested on: NCI-H460 lung
# OVCAR-4 ovarian = tested on: OVCAR-4 ovarian
# T-47D breast = tested on: T-47D breast
# NCI/ADR-RES ovarian = tested on: NCI/ADR-RES ovarian
# SF-268 CNS = tested on: SF-268 CNS
# LOX IMVI melanoma = tested on: LOX IMVI melanoma
# HOP-62 NSCLC = tested on: HOP-62 NSCLC
SMILES,TGI (SR leukemia) [µM],TGI (RPMI-8226 leukemia) [µM],TGI (CAKI-1 renal) [µM],TGI (NCI-H460 lung) [µM],TGI (OVCAR-4 ovarian) [µM],TGI (T-47D breast) [µM],TGI (NCI/ADR-RES ovarian) [µM],TGI (SF-268 CNS) [µM],TGI (LOX IMVI melanoma) [µM],TGI (HOP-62 NSCLC) [µM],GI50 (SR leukemia) [µM],GI50 (RPMI-8226 leukemia) [µM],GI50 (CAKI-1 renal) [µM],GI50 (NCI-H460 lung) [µM],GI50 (OVCAR-4 ovarian) [µM],GI50 (T-47D breast) [µM],GI50 (NCI/ADR-RES ovarian) [µM],GI50 (SF-268 CNS) [µM],GI50 (LOX IMVI melanoma) [µM],GI50 (HOP-62 NSCLC) [µM]
c1ccc(CN2CCC(CNc3ncnc4ccccc34)C2)cc1 (stereo not given),65.1,38.7,> 100,> 100,> 100,> 100,> 100,> 100,> 100,> 100,,,,,,,,,,
CC1CC[C@@]2(OC1)OC1C[C@H]3[C@@H]4CC=C5C[C@@H](OC6OC(CO)C(OC7OC(CO)C(O)C(O)C7O)C(O)C6OC6OC(C)C(O)C(O)C6O)CC[C@]5(C)[C@H]4CC[C@]3(C)C1[C@@H]2C (stereo not given in full),0.852,1.33,2.71,1.76,5.03,1.21,5.71,1.2,0.852,1.6,,,,,,,,,,
CCOc1ccc(Nc2nc(N)nc(N)c2N=O)cc1,> 100,> 100,38.5,> 100,> 100,> 100,> 100,> 100,> 100,> 100,,,,,,,,,,
COC1CCC(OS(C)(=O)=O)C(C)O1 (stereo not given),> 10,> 10,> 10,> 10,> 10,> 10,> 10,> 10,> 10,> 10,,,,,,,,,,
COC(=O)[C@]1(c2cc3ccccc3[nH]2)CC2CNC1C1OC(C)(C)OC21 (stereo not given in full),> 100,> 100,> 100,> 100,> 100,> 100,> 100,> 100,> 100,> 100,,,,,,,,,,
O=c1[nH]c(NCCCCCO)nc2nc[nH]c12,> 100,> 100,> 100,> 100,> 100,> 100,> 100,> 100,> 100,> 100,,,,,,,,,,
CSC1=C(C)C(/C=N/Nc2ccc([N+](=O)[O-])cc2)=C(C)N(c2ccccc2)S1(=O)=O,> 100,> 100,> 100,> 100,> 100,> 100,> 100,> 100,> 100,> 100,,,,,,,,,,
CC(OC(C)(C)C)C(NC(=O)OCC1c2ccccc2-c2ccccc21)C(=O)NC(Cc1ccccc1)C(=O)OCc1ccccc1 (stereo not given) (Fmoc-Thr(tBu)-Phe-OBn; configuration not given here),> 100,> 100,> 100,> 100,> 100,> 100,> 100,> 100,> 100,> 100,,,,,,,,,,
COc1ccccc1-c1cc(=O)c2cccnc2[nH]1,> 100,> 100,> 100,> 100,> 100,> 100,> 100,> 100,> 100,> 100,,,,,,,,,,
Cc1c(-c2ccccc2)oc(=O)c2ccccc12,65.4,36.5,53.9,> 100,71.4,75.7,75.4,45.1,40.4,43.5,,,,,,,,,,
Oc1ccccc1/C=N/c1nc(-c2ccccc2)cs1,79.5,> 100,62.6,> 100,> 100,> 100,> 100,> 100,46.9,> 100,24.3,27.5,22.5,> 100,33.7,> 100,> 100,81.1,17.6,> 100
C[N+](C)([O-])C12CC3CC(CC(C3)C1)C2,> 100,93.6,> 100,> 100,> 100,85.7,> 100,> 100,63.8,> 100,,,,,,,,,,
COC1=C(OC)C(=O)C(Cc2c(-c3ccccc3)nc3sc(Cl)cn23)=C(C)C1=O,72.1,34.9,50.3,40,18.8,> 100,39.9,41.2,71.7,38.2,,,,,,,,,,
O=c1ccc(=O)c2c1c1[nH]c3ccccc3c1c1c(=O)c3ccccc3c(=O)c21,> 10,> 10,> 10,> 10,> 10,> 10,> 10,> 10,> 10,> 10,,,,,,,,,,
N#Cc1cc2c(n(C3OC(CO)C(O)C(O)C3O)c1=S)CCC2 (stereo not given),> 100,> 100,> 100,> 100,> 100,> 100,> 100,> 100,> 100,> 100,,,,,,,,,,
COc1cc2ccc(C(C)NCC#N)cc2cc1OC (stereo not given),> 100,> 100,> 100,> 100,> 100,> 100,> 100,> 100,> 100,> 100,,,,,,,,,,
CC[P+](c1ccccc1)(N(C)C)N(C)C,> 100,> 100,> 100,> 100,> 100,> 100,> 100,> 100,> 100,> 100,,,,,,,,,,
CCOC(=O)CC1(N)CC2c3ccccc3OC(=O)C2C(=O)N1 (stereo not given),> 100,> 100,> 100,> 100,> 100,> 100,> 100,> 100,> 100,> 100,,,,,,,,,,

SMILES,TGI (SR leukemia) [µM],TGI (RPMI-8226 leukemia) [µM],TGI (CAKI-1 renal) [µM],TGI (NCI-H460 lung) [µM],TGI (OVCAR-4 ovarian) [µM],TGI (T-47D breast) [µM],TGI (NCI/ADR-RES ovarian) [µM],TGI (SF-268 CNS) [µM],TGI (LOX IMVI melanoma) [µM],TGI (HOP-62 NSCLC) [µM],GI50 (SR leukemia) [µM],GI50 (RPMI-8226 leukemia) [µM],GI50 (CAKI-1 renal) [µM],GI50 (NCI-H460 lung) [µM],GI50 (OVCAR-4 ovarian) [µM],GI50 (T-47D breast) [µM],GI50 (NCI/ADR-RES ovarian) [µM],GI50 (SF-268 CNS) [µM],GI50 (LOX IMVI melanoma) [µM],GI50 (HOP-62 NSCLC) [µM]
C=C(CCC(=O)N(CCc1c[nH]c2ccccc12)C(=O)c1ccccc1CSCC)C(=O)OC,> 100,> 100,> 100,> 100,> 100,> 100,> 100,> 100,> 100,> 100,,,,,,,,,,
Nc1ncnc2c1ncn2CCCNO,> 100,> 100,> 100,> 100,> 100,> 100,> 100,> 100,> 100,> 100,,,,,,,,,,
c1csc(-c2cc(-c3ccsc3)cs2)c1,> 100,> 100,> 100,> 100,> 100,> 100,> 100,> 100,> 100,> 100,,,,,,,,,,
COc1ccc(Nc2nc(N)c(C(=O)c3ccco3)s2)cc1,> 33.8,> 85.4,> 100,> 53.3,> 89.9,> 100,> 94.8,> 100,> 100,> 100,,,,,,,,,,
N#CC(C#N)=C/C=C/c1ccccc1[N+](=O)[O-],> 10,> 10,> 10,> 10,> 10,> 10,4.84,> 10,7.09,> 10,,,,,,,,,,
Fc1cccc(C2ON=C(c3ccccc3)N2C23CC4CC(CC(C4)C2)C3)c1 (stereo not given),> 10,> 10,> 10,> 10,> 10,> 10,> 10,> 10,> 10,> 10,,,,,,,,,,
CN1CCN(Cc2ccc(C(=S)Nc3ccccc3)s2)CC1,73,> 100,> 100,> 100,> 100,> 100,> 100,> 100,31.9,> 100,,,,,,,,,,
Cc1cc(C)n(C(C)(C(=O)Cc2ccccc2)n2nc(C)cc2C)n1,> 100,> 100,> 100,> 100,> 100,> 100,> 100,> 100,> 100,> 100,,,,,,,,,,
CC(C)(C)C(=O)C(N)C(=O)C(C)(C)C,> 100,> 100,> 100,> 100,> 100,> 100,> 100,> 100,> 100,> 100,,,,,,,,,,
CC(C)(C)c1cc(C(C)(C)C)c2sc(=O)oc2c1O,63.6,> 100,25.3,18.8,27.6,19.8,30.1,26.4,27.7,33.2,,,,,,,,,,
COc1cc2c(cc1OC)C(C1CC1)ON(C)CC2 (stereo not given),> 100,> 100,> 100,> 100,> 100,> 100,> 100,> 100,> 100,> 100,,,,,,,,,,
Clc1ccc(-c2nn3c(COc4ccc(OCc5nnc6sc(-c7ccc(Cl)cc7)nn56)c(Cl)c4)nnc3s2)cc1,61.4,> 100,75.1,> 100,> 100,> 100,> 100,35.6,35.6,77.7,,,,,,,,,,
CCOC(=O)C(NC(=O)c1ccccc1)(Nc1ccc(S(=O)(=O)Nc2cc(C)on2)cc1)C(F)(F)F (stereo not given),> 100,> 100,> 100,> 100,> 10,> 100,> 100,> 100,> 100,> 100,,,,,,,,,,
COc1cc(-c2cc(OC)c(OC)c3ccc(Br)cc23)c2cc(Br)ccc2c1OC,86,51.7,> 100,> 100,31.1,95.4,90.1,50.8,46.6,44.7,,,,,,,,,,
CCCCCCCC(=O)OC[n+]1cccc(-c2c(COC(=O)NC(C)C)c(COC(=O)NC(C)C)c3n2CCC3)c1,> 100,> 100,> 87.5,> 100,> 100,> 100,> 100,> 100,> 100,> 100,,,,,,,,,,
CCn1c(-c2cc3ccccc3cc2OC(C)=O)n[nH]c1=S,4.79,44.6,> 100,69.8,> 100,43.3,60.9,> 100,> 100,> 100,,,,,,,,,,
CCOC1OC(C)(C=C(C#N)C#N)CCC1C (stereo not given),> 76.2,70.6,96.2,98.7,> 100,> 100,> 88.7,> 100,> 75.8,> 100,,,,,,,,,,

# — PubChem BioAssay (NCI)
